How the values were obtained:
[1] = test system: ANGPTL4 gene expression; assay: ANGPTL4 gene expression in C2C12 cells by Affymetrix micro-arrays; assay type: cell-based; details: C2C12 mouse muscle cells, 20 hours, vs control = 1.00
Description: Cell culture: C2C12 cells (ATCC: CRL1772)
Cells were cultured in DMEM (5 mM glucose) supplemented with 10% heat-inactivated fetal calf serum (FCS). Complete medium was filtered through 0.2 μm pores before use. Differentiation was performed in 6 well dishes by serum depleting the medium (DMEM High Glucose, 2% FCS) when cells reach confluency. Cell cultures were then incubated for 5 days at 37° C. in a 90%-humidified and 95%-air-5%-CO2 sterile atmosphere to allow differentiation.
PPAR Ligands were dissolved in 100% DMSO and added to medium to adjust 0.1% (v/v) DMSO final concentration and cells were incubated with ligands for 20 hours under normal growth conditions. Three replicates were done for each condition.
RNA extraction procedure has been performed with Qiagen QIAschredder and RNeasy kits.
Approximately 1*106 pelleted cells per sample were resuspended in 350 μl guanidine thiocyanate containing RLT. Samples were loaded on a QIAshredder-column and centrifuged at full speed for 2 minutes to homogenize the lysates. After adding 350 μl ethanol to the flow-through for better binding conditions, samples were applied to RNeasy spin. For the first wash step 350 μl RW1 buffer were pipeted into the column. Then 10 μL DNase solution gently mixed with 70 μl RDD buffer were applied onto the column and incubated for 15 minutes at room temperature to remove genomic DNA. […]

[2] = test system: ANGPTL4 gene expression; assay: ANGPTL4 gene expression in C2C12 cells by qPCR; assay type: cell-based; details: C2C12 mouse muscle cells, S12 reference, vs control = 1
Description: The culturing of the C2C12 mouse muscle cells, RNA extraction, cDNA synthesis and purifications were performed as described in Example 1.
RT-PCR was performed with the Quantitech SYBR Green kit from Qiagen according to the manufacturer's manual. Each component were added to 96 well plate: 25 μl master mix, 0.16 μl of each primer (100 μM stock solution), 22.7 μl H2O and 2 μl cDNA.
The program consists of three different steps: initial denaturation of template and heat-activation of the Taq DNA polymerase (95° C., 15 min), cycling (95° C. denaturation, 60° C. primer-template annealing, 72° C. elongation, fluorescence aquisition), and final melting (melting curve 55 to 95° C., measurements in 0.5° C. steps).
The relative quantification is based on the relative expression of the target gene versus a reference gene. […] The cycle number at which threshold fluorescence is reached, is called ct value. […] The relative ct value of a target gene compared to the ct value of an internal reference in the control or untreated sample is expressed as Δct.control=ctreference of control−cttarget of control and in a treated, unknown sample as Δct.sample=ctreference of sample−cttarget of sample.
As internal reference for quantitative studies the ribosomal protein S12 gene expression was used. […] Setting of fluorescence threshold is determined by the light cycler software. The obtained ct values (duplicates for one sample, two samples per condition) were exported into Microsoft Excel and analyzed as described above.

Row | SMILES | ANGPTL4 gene expression fold changes ([1]; 300 μM) [fold] | ANGPTL4 gene expression fold changes ([2]; 300 μM) [fold] | ANGPTL4 gene expression fold changes ([1]; 500 nM) [fold] | ANGPTL4 gene expression fold changes ([2]; 500 nM) [fold]
1 | CC(C)(Oc1ccc(C(=O)c2ccc(Cl)cc2)cc1)C(=O)O [A, 2-[4-(4-Chlorobenzoyl)-phenoxy]-2-methylpropanoic acid] | 1.99 | 2.61 | – | –
2 | Cc1nc(-c2ccc(C(F)(F)F)cc2)sc1C(Sc1ccc(OCC(=O)O)c2ccccc12)C1CCCC1 (racemic) [C, [rac]-(4-{Cyclopentyl-[4-methyl-2-(4-trifluoromethyl-penyl)-thiazol-5-yl]-methylsulfanyl}-naphtalen-1-yloxy}-acetic] | – | – | 8.87 | 10.06
3 | Cc1cc(N(C)Cc2sc(-c3ccc(C(F)(F)F)cc3)nc2C)ccc1OCC(=O)O [D, (2-Methyl-4-{Methyl-[4-methyl-2-(4-trifluoromethyl-phenyl)-thiazol-5-ylmethyl]-amino}-phenoxy)-acetic acid] | – | – | – | 13.51

From patent US20050233361A1, “PPARdelta assay” (priority 2004, published 2005)
